Assay results from patent US20240368113A1, “AMIDE COMPOUND AND USE THEREOF” (Chengdu Fendi Pharmaceutical Co. Ltd., priority 2021, published 2024).

Columns and labels:
MV-4-11 cells = experiment: Inhibition of tumor cell proliferation (CellTiter-Glo); assay type: cell-based; conditions: Homo sapiens, MV4-11; MV-4-11 cells, 72 h, CellTiter-Glo; read-out: IC50 of inhibitory activity of tumor cell proliferation
Procedure: MV-4-11 cells were diluted with medium (RPM1640+10% FBS+1% PS) and plated at 4000 cells/well in a white-walled clear-bottom 96-well plate. MV-4-11 cells were plated and incubated in a 5% CO2, 37° C. incubator for 2 hours. Cells were treated with the indicated concentration of compound or DMSO (control), and placed in a 5% CO2, 37° C. incubator for 72 h after dosing. After the end of the culture, equilibrate at room temperature for 30 min, add 100 μl of CellTiter-Glo® Reagent to each well, and shake the microplate shaker for 2 min. After 10 min of incubation at room temperature, the luminescence was measured by a microplate reader, and the cell-free wells were used as the background wells. CC-90009 (celegen patent phase I) was used as a control, and its structural formula was as follows: 0

hERG potassium channel [1] = biological target: T1, hERG potassium channel (Homo sapiens, UniProt Q12809); experiment: in vitro; conditions: hERG Inhibition rate (3 μM), HEK293 cells expressing hERG, 3 min exposure
T1 sequence (Q12809 whole entry): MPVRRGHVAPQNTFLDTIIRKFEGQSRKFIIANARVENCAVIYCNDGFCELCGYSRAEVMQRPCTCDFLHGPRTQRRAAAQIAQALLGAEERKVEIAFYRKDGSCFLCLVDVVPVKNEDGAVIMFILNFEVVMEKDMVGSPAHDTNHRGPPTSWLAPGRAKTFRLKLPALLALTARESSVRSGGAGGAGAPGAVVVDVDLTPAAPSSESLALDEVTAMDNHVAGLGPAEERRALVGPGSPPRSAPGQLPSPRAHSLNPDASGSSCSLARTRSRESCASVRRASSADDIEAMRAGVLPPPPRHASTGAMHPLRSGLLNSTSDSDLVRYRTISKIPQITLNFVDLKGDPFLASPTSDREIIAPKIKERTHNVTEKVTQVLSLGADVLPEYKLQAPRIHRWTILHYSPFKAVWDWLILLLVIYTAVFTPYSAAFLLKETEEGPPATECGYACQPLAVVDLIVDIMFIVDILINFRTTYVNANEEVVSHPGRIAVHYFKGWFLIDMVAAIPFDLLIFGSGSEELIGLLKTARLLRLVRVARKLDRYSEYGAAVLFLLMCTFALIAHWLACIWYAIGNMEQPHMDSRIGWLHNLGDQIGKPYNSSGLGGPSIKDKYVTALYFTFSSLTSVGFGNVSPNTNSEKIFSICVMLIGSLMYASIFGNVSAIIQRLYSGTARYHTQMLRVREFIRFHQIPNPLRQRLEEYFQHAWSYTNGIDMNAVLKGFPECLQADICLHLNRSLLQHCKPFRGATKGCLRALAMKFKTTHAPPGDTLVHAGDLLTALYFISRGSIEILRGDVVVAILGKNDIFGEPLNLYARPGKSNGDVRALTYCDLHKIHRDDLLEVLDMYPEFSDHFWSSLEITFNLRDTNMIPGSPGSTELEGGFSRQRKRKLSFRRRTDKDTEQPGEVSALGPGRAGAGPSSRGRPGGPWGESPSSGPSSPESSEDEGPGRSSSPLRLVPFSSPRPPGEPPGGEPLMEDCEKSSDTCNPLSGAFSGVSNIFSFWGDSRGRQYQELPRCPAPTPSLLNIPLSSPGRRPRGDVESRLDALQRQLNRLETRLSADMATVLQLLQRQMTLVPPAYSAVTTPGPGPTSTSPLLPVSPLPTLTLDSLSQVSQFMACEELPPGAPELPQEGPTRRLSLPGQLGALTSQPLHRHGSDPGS
Procedure: (§2) This test example is used to measure the effect of the compound on the hERG potassium channel of the clone expressed in human embryonic kidney cells (HEK293).
(§3) Assay: cells are placed in HEPES-buffered saline solution in glass-lined 96-well plates and loaded with appropriate amounts of test and control solution (0.3% DMSO solution) at each concentration for 3 min exposure time. Dilute the compound to be tested in 0.3% DMSO. An automated parallel patch-clamp system QPatch 48 X (Sophion) was used to test the inhibition of hERG by compounds at a concentration of 3 μM.
(§4) The calculation method of the inhibition rate is as follows: (peak tail current in the control group−peak tail current in the test group)/(peak tail current in the control group)×100%.

hERG potassium channel [2] = biological target: T1, hERG potassium channel; experiment: hERG inhibition assay (automated patch clamp, QPatch); conditions: HEK293 cells expressing hERG, 3 min exposure
Procedure: as §2, §3, §4

GSPT1 [3] = biological target: T2, GSPT1 (Homo sapiens, UniProt P15170); experiment: Western blot of GSPT1 degradation in MV-4-11 cells; assay type: cell-based; set-up: endogenous in cells; conditions: 4 h treatment, western blot (FIG. 1)
T2 sequence (P15170 whole entry): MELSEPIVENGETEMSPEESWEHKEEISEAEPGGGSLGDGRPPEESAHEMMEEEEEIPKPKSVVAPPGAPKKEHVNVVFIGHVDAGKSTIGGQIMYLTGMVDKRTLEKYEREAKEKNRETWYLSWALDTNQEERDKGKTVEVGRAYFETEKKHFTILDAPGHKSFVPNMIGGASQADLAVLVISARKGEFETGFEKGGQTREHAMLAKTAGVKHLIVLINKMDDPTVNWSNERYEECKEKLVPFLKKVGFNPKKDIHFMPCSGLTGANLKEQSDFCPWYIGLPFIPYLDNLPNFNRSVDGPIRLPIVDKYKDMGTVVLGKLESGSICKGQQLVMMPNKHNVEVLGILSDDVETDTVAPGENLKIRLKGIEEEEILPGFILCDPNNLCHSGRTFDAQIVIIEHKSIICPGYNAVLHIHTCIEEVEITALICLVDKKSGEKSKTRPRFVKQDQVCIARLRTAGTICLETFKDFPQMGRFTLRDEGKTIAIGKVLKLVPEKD
Procedure: (§1) Test Case 1: Regulatory Effect of the Present Invention Compound on GSPT1 in MV-4-11 Cells MV-4-11 (human myeloid monocytic leukemia cells) and NB-4 (human acute promyelocytic leukemia cells) cells were treated with medium RPMI 1640+10% FBS at 1*10^6/well was seeded in 6-well plates, then compounds were added for 4 h treatment, DMSO was used as a blank control, and cells were collected by centrifugation. Western blot analysis was performed with antibody labeling (Anti-GSPT1: CellSignaling Technology #14980s; Anti-GAPDH: HuabioET601-4; Goatanti-RabbitIgG-HRPantibody: HuabioHA1001) for detection on a Bio-Rad or MINICHEMI™ imaging system.

GSPT1 [4] = biological target: T2, GSPT1; experiment: Western blot of GSPT1 degradation in NB-4 cells; assay type: cell-based; set-up: endogenous in cells; host or cells: NB-4
Procedure: as §1

O=C1CCC(N2Cc3cc(CNC(=O)C(F)(F)c4ccc(Cl)cc4)ccc3C2=O)C(=O)N1 (stereo not shown) [CC-90009]
IC50 (MV-4-11 cells): 10 to 100 nM | inhibition at 3 µM (hERG potassium channel [1]): 64% | hERG Inhibition rate (3 μM) (hERG potassium channel [2]): 64.48%

CCc1ccc(C#CC(=O)NCc2ccc3c(c2)CN(C2CCC(=O)NC2=O)C3=O)cc1 (stereo not shown) [Compound 1]
IC50 (MV-4-11 cells): < 1 nM | degradation of GSPT1 protein (GSPT1 [3]; 10 μM): completely degradation

O=C(C#Cc1ccc(F)cn1)NCc1ccc2c(c1)CN(C1CCC(=O)NC1=O)C2=O (stereo not shown) [Compound 12]
IC50 (MV-4-11 cells): 1 to 10 nM | degradation of GSPT1, concentration dependence (GSPT1 [3]; concentrations from 1.52 nM): induced the degradation of GSPT1 more as the concentration increases

Nc1ccccc1C#CC(=O)NCc1ccc2c(c1)CN(C1CCC(=O)NC1=O)C2=O (stereo not shown) [Compound 83]
IC50 (MV-4-11 cells): 1 to 10 nM | degradation of GSPT1 (GSPT1 [4]; 0.01 μM, 4 h treatment, western blot (FIG. 1)): significantly degradation | compound-induced degradation of GSPT1 after pretreatment with MG132 or MLN4924 (GSPT1 [4]; pretreatment with proteasome inhibitor MG132 or NEDD8 activating enzyme inhibitor MLN4924): completely blocked
